Entries after “also recorded” stand apart in the source; their conditions may differ.
Key:
[1] = tested on: bone; assay: Bone analysis (microCT, histology) of PGE2-treated mice; format: in vivo
Description: FIG. 6A is a graph showing quantification of bone volume performed by microCT analysis of femora from mice treated with PGE2 (6 mg/kg i.p. daily for 16 days (n=8)).
Adult C57Bl/6 male mice were treated with PGE2 for 16 days.

[2] = tested on: Jagged1; assay: Jagged1 protein by Western blot in UMR106 cells; format: cell-based; conditions: UMR106 cells after treatment with PGE2, Western blot, antibody C-20
Description: UMR 106 cells were serum starved for 24 hours and then treated with a single dose of vehicle (controls) or PGE2 at a concentration of 10^-7 M. RNA was collected from both control and treated samples to assess the fold change in Jagged1 mRNA by real time RT-PCR analysis corrected for by beta-actin. FIG. 1B is a Western blot showing total protein that was collected from both control and treated samples exposed to Jagged1 antibody, C20. Positive control (+ctr) was provided by HS27a cells, a human stromal cell line with high levels of Jagged1 protein, while HS5 cells from a human stromal cell line with minimal Jagged1 levels were used as a negative control. FIG. 2A is a graph showing that inhibition of PKA blocks PGE2-dependent increase of Jagged1 in UMR 106 cells. UMR106 cells were serum starved for 24 hours. They were pre-treated with H89 for 30 minutes followed by a single dose of PGE2 at 10^-7 M or vehicle. RNA was collected from both control and treated samples to assess the fold change in Jagged1 RNA by real time RT-PCR analysis corrected for by β-actin. […] UMR106 cells were serum starved for 24 hours. […] Total RNA was extracted and analyzed by real time RT-PCR, normalizing for β-actin expression and t=0. Total protein was analyzed by Western blots performed using the […] system (Invitrogen, Carlsbad, Calif.). […]

[3] = tested on: hematopoietic stem cells; assay: HSC frequency by flow cytometric analysis of lin-, sca+, kit+ (LSK/KSL) bone marrow cells; format: in vivo, mice
Description: FIG. 7A is a graph showing KSL frequency at 4 days. FIG. 7B is a graph showing KSL frequency at 8 days. FIG. 7C is a graph showing KSL frequency at 12 days. FIG. 7D is a graph showing KSL frequency at 16 days.
FIG. 9 is a graph showing the percent of HSCs in total bone marrow following in vivo administration of PGE2 in C57bl/6 mice. Eight to ten week old WT C5bl/6 mice given IP injections twice daily for 16 days of either 6 mg/kg PGE2 or vehicle (n=4 for each group). The left hind limb of each mouse was harvested, the bone marrow flushed out and the cells stained with lineage markers, sca-1 and c-kit. DAPI was used for a viability stain. The lin−, sca+, kit+ population was gated using FlowJo software for both PGE2 treated and vehicle treated samples. There was a 66% increase in lin−, sca+, kit+ (LSK) cells in PGE2 vs. vehicle treated mice (p=0.0093). As used herein, LSK and KSL frequency are used interchangeably.
Eight to ten week old FVB/N male mice were injected intraperitoneally once or twice daily for 16 days with either PGE2 (6 mg/kg body weight) or vehicle. Left hind limbs were harvested, fixed, decalcified, and processed. Right hindlimbs were harvested at the same time. The bone marrow was flushed and stained for FACS analysis with scal, ckit, and lineage marker antibodies.
In order to determine if the number of HSCs was increased in vivo by PGE2, eight to ten week old FVB/N mice were given daily IP injections for 16 days of either 6 mg/kg PGE2 or Vehicle. The left hind limb of each mouse was harvested, the bone marrow was flushed out, and the cells were stained with lineage markers, sca-1 and c-kit. DAPI was used for a viability stain. The lin−sca+ckit+population was gated using FlowJo software (FlowJo, Ashland, Oreg.) for both PGE2 treated and VEH treated samples. […] The same procedure was performed on C57bl/g mice.

[4] = tested on: HSC subsets; assay: LSK subset analysis based on Flt3 and Thy1.1 expression; format: in vivo, mice
Description: FIGS. 12A and 12B are representative plots of flow cytometric strategy of LSK subset from bone marrow of individual vehicle and PGE2-treated mice, numbers in the quadrant represent percentage of LSK.
To further confirm this targeted PGE2 effect, LSK subset analysis based on Flt3 and Thy1.1 expression was performed. […] (n=4 per treatment group).

[5] = tested on: ST-HSC; assay: Competitive repopulation in lethally irradiated recipients; format: in vivo, mice; conditions: donor CD45.2 to competitor CD45.1 1:2, effect limited to short-term (up to 6 weeks)
Description: FIGS. 11A, 11B and 11C are graphs showing engraftment data from peripheral blood from competitive repopulation analysis from CD45.2+c57bl/6 mice treated daily with PGE2 (6 mg/kg i.p. twice daily) (n=8 mice per treatment group, n=10 recipient mice per group, 2 experiments).
This effect was limited to the short-term (up to 6 weeks) (FIGS. 11A, 11B and 11C), illustrating specific ST-HSC expansion. This is a unique in vivo model of selective ST-HSC increase. This effect is best illustrated by the short lived CD11b+myeloid subset (FIGS. 11A, 11B and 11C).

## CCCCC[C@H](O)/C=C/[C@H]1[C@H](O)CC(=O)[C@@H]1C/C=C\CCCC(=O)O [PGE2, Prostaglandin E2]
[1]; adult C57Bl/6 male mice, 16 days
  bone anabolic effect in long bones, histologically or by micro-CT imaging: no evidence of a significant bone anabolic effect
[1]; adult FVB/N male mice, 6 mg/kg/day i.p., day 12
  bone volume by microCT analysis: no significant increase
[1]; in vivo treatment with PGE2
  cortical width of the tibia: significantly increased
  tibial metaphyseal trabecularization: increased
[2]
  Jagged1 protein: increased
[3]; C57bl/6 mice, 6 mg/kg IP twice daily for 16 days, n=4
  increase in lin−, sca+, kit+ (LSK) cells vs. vehicle: 66%
[3]; FVB/N mice, 6 mg/kg IP daily, 4 to 16 days, vs vehicle, 6 mg/kg
  percent of HSCs (KSL) in total bone marrow: trend towards an increase; also recorded: increased significantly
[3]; adult C57Bl/6 male mice, 16 days, n=8 per group
  increase of HSC enriched LSK subpopulation: 3.5 fold
[4]; n=4, p 0.007 vs vehicle
  MPP (Flt3+Thy1.1- LSK) quantification from bone marrow: 0.0305 ± 0.002398
[4]; n=4, p 0.0307 vs vehicle
  ST-HSC (Flt3+Thy1.1int LSK) quantification from bone marrow: 0.02725 ± 0.003568
[4]; n=4, p 0.1069 (NS) vs vehicle
  LT-HSC (Flt3−Thy1.1int LSK) quantification from bone marrow: 0.01264 ± 0.002233
[5]
  multilineage reconstitution by donor cells from treated mice: superior multilineage reconstitution

Reference: patent US9394520B2, “Expansion of hematopoietic stem cells” (University of Rochester, priority 2006, dated 2016)
